Where a SMILES comes first, the peptide text is derived from it. [ ]: non-standard residue; d: D form. Dmt = Cc1cc(O)cc(C)c1C[C@H](N)C(=O)O
Tested on: LUVs with POPC only
Experiment: SS-31 binding isotherms by endogenous 2′,6′-Dmt fluorescence
Conditions: even at the highest lipid concentrations used
Source text: The interaction of basic amphipathic peptides with negatively charged membranes depends on the electric field originating from the bilayer surface as well as specific electrostatic and hydrophobic interactions between the peptide and lipids (Fig. S2). The first objective of this study was to quantitatively evaluate the binding of SS-31 to model membranes with specific lipid composition. For spectroscopic analysis of SS-31 binding, we made use of the endogenous spectral properties of the 2′,6′-dimethyltyrosine (2′,6′-Dmt) side chain at the second position in the peptide. Our initial spectral characterization of SS-31 confirmed the feasibility of using endogenous peptide fluorescence to quantify peptide-membrane interactions (supporting Results A and B and Figs. S3 and S4). We therefore proceeded to measure the binding of SS-31 to large unilamellar vesicles (LUVs) containing anionic lipids in a host background of the zwitterionic lipid 1-palmitoyl-2-oleoyl-sn-glycero-3-phosphocholine (POPC, 16:0/18:1 PC). […]
Figure 2. […] A–C, fluorescence-based measurements. […] Statistical differences within each data set were determined relative to TOCL-containing membranes: •, p < 0.05; ••, p < 0.01. […]

Cc1cc(O)cc(C)c1C[C@H](NC(=O)[C@H](N)CCCNC(=N)N)C(=O)N[C@@H](CCCCN)C(=O)N[C@@H](Cc1ccccc1)C(N)=O [SS-31, D-Arg-2′6′-dimethyl-Tyr-Lys-Phe-NH2] (H-[dR][Dmt]KF-NH2)
binding in the absence of anionic lipid: negligible
